# Assay results reported in patent US9718790B2, “Triazine derivative and pharmaceutical composition having an analgesic activity comprising the same” (SHIONOGI & CO., LTD., priority 2010, dated 2017).
# Molecular target: human P2X3 receptor (Homo sapiens (Human), UniProt P56373)
# Assay: Evaluation of human P2X3 receptor inhibitory activity (Fluo-3 calcium fluorescence, FDSS 3000, ATP stimulation);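 also: stimulus was 50 nM ATP with fluorescence followed for 3 min, and the response per well was peak post-ATP fluorescence divided by the reading at measurement start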
# Assay type: cell-based
# Details: C6BU-1 cells stably expressing human P2X3 receptor
# Sequence of human P2X3 receptor (P56373 whole entry): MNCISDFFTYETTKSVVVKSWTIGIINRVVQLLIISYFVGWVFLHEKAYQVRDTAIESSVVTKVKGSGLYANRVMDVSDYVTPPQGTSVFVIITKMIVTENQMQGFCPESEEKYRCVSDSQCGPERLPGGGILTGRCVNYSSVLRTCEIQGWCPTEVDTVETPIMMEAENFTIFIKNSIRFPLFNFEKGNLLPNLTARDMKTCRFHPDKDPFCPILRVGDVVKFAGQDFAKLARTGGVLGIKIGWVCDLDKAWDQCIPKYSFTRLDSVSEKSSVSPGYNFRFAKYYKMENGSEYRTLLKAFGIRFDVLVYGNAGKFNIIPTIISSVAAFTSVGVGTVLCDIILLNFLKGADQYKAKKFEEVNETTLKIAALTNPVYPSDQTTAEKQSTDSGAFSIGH
row,Compound,IC50
1,Cc1ccc(Cn2c(=O)n(C)c(=O)[nH]/c2=N\c2ccc(Oc3ccnc(C(=O)O)c3)cc2)cc1 [Compound I-2100],0.007 µM
2,CC(C)Cc1ccc(/N=c2\[nH]c(=O)n([C@@H](C)[C@@H](C)C(=O)O)c(=O)n2Cc2ccc(Cl)cc2)cc1Cl [Compound I-1442],0.008 µM
3,COC(=O)[C@@H](C)Cn1c(=O)[nH]/c(=N\c2ccc(OC(C)C)c(C)c2)n(Cc2ccccc2)c1=O [Compound I-0764],0.254 µM
4,CCCOc1ccc(/N=c2\[nH]c(=O)n(C(C)(C)CC(=O)OCC)c(=O)n2Cc2ccc(Cl)cc2)cc1 [Compound I-0821],0.05 µM
5,CCOC(=O)CCn1c(=O)[nH]/c(=N\c2ccc(Oc3cccc(F)c3)cc2)n(Cc2ccc(Cl)cc2)c1=O [Compound I-1937],0.022 µM
6,CNC(=O)C1(Cn2c(=O)[nH]/c(=N\c3ccc(OC(C)C)c(C)c3)n(Cc3ccc(Cl)cc3)c2=O)CC1 [Compound I-0703],0.015 µM
7,O=c1[nH]/c(=N\c2ccc3nc(C(F)(F)F)sc3c2)n(Cc2ccc(Cl)cc2)c(=O)n1C[C@H](O)CO [Compound I-2168],0.057 µM
8,COC(=O)[C@@H](C)[C@@H](C)n1c(=O)[nH]/c(=N\c2ccc(N3CCCCC3)cc2)n(Cc2ccc(C)cc2)c1=O [Compound I-1455],0.032 µM
9,COC(=O)[C@H](C)[C@H](C)n1c(=O)[nH]/c(=N\c2ccc(Oc3cccnc3)cc2)n(Cc2ccc(Cl)cc2)c1=O [Compound I-1377],0.007 µM
10,COC(=O)[C@@H](C)Cn1c(=O)[nH]/c(=N\c2ccc(Oc3ccnc(O)c3)cc2)n(Cc2ccc(C)cc2)c1=O [Compound I-1432],0.002 µM
11,CCn1c(=O)[nH]/c(=N\c2ccc(Oc3cccc(C(=O)O)c3)cc2)n(Cc2ccc(C)cc2)c1=O [Compound I-2034],0.009 µM
12,COC(=O)[C@@H](C)Cn1c(=O)[nH]/c(=N\c2ccc3nc(C)ccc3c2)n(Cc2ccc(Cl)cc2)c1=O [Compound I-0790],0.013 µM
13,CCOC(=O)CCn1c(=O)[nH]/c(=N\c2ccc(OC(C)C)c(COC(C)=O)c2)n(Cc2ccc(C)cc2)c1=O [Compound I-1425],0.05 µM
14,CC(C)Oc1ccc(/N=c2\[nH]c(OCC(=O)NC(CO)CO)nc(=O)n2Cc2ccc(Cl)cc2)cc1F [Compound I-0584],0.248 µM
15,Cc1ccc(Cn2c(=O)n(CCC(=O)O)c(=O)[nH]/c2=N\c2ccc(OC3CCC3)c(C)c2)cc1 [Compound I-1406],0.064 µM
16,CCCc1ccc(/N=c2\[nH]c(=O)n(C[C@H](C)C(=O)OC)c(=O)n2Cc2ccc(C)cc2)cc1OC [Compound I-1360],0.032 µM
17,CC(C)Oc1ccc(/N=c2\[nH]c(=O)n(CC(=O)N3CCN(C(=O)OC(C)(C)C)CC3)c(=O)n2Cc2ccc(Cl)cc2)cc1Cl [Compound I-0740],0.221 µM
18,O=c1[nH]/c(=N\c2ccc3nc(C4CC4)sc3c2)n(Cc2ccc(Cl)cc2)c(=O)n1CCO [Compound I-2026],0.022 µM
19,CC(C)Oc1ccc(/N=c2\[nH]c(=O)n(C(C)(C)C(=O)NC(CO)CO)c(=O)n2Cc2ccc(Cl)cc2)cc1Cl [Compound I-0687],0.012 µM
20,COC(=O)NCCCn1c(=O)[nH]/c(=N\c2ccc(OC(C)C)c(F)c2)n(Cc2ccc(Cl)cc2)c1=O [Compound I-0608],0.006 µM
21,COC(=O)[C@@H](C)Cn1c(=O)[nH]/c(=N\c2ccc(C)c(Cl)c2)n(Cc2ccc(Cl)cc2)c1=O [Compound I-0691],0.048 µM
22,CCn1c(=O)[nH]/c(=N\c2ccc(Oc3cccc(C(N)=O)c3)cc2)n(Cc2ccc(Cl)cc2)c1=O [Compound I-1925],0.006 µM
23,CC(C)Oc1ccc(/N=c2\[nH]c(=O)n(CCC(=O)NO)c(=O)n2Cc2ccc(Cl)cc2)cc1F [Compound I-0603],0.012 µM
24,CC(C)Oc1ccc(/N=c2\[nH]c(OCC(=O)N(C)CCO)nc(=O)n2Cc2ccc(Cl)cc2)cc1F [Compound I-0586],0.611 µM
25,Cc1ccc(Cn2c(=O)n([C@@H](C)[C@@H](C)C(=O)O)c(=O)[nH]/c2=N\c2ccc3oc(C)cc3c2)cc1 [Compound I-1353],0.041 µM

# Same assay, conditions: C6BU-1 cells stably expressing human P2X3 receptor, Fluo-3 fluorescence, FDSS 3000
row,Compound,IC50
1,Cc1ccc(Cn2c(=O)n(C[C@H](C)C(=O)O)c(=O)[nH]/c2=N\c2ccc(C3=CCCCC3)cc2)cc1 [Compound I-1111],0.161 µM
2,CCc1cc2cc(/N=c3\[nH]c(=O)n(C[C@H](C)C(=O)OC)c(=O)n3Cc3ccc(Cl)cc3)ccc2o1 [Compound I-1765],0.009 µM
3,"CCc1ccc(Cn2c(=O)n(C[C@H](C)C(=O)O)c(=O)[nH]/c2=N\c2ccc(OC(C)C)c(C)c2)cc1 [Compound I-0898, (S)-1-(4-ethylbenzyl)-6-(3-mehyl-4-isopropoxyphenylimino)-3-(2-hydroxycarbonylpropyl)-1,3,5-triazinane-2,4-dion]",0.02 µM
4,CC(C)=Cc1ccc(/N=c2\[nH]c(=O)n(C[C@H](C)C(=O)O)c(=O)n2Cc2ccc(Cl)cc2)cc1C [Compound I-0950],0.02 µM
5,CCCOc1ccc(/N=c2\[nH]c(=O)n(CC3(C(=O)OCC)CC3)c(=O)n2Cc2ccc(Cl)cc2)cc1 [Compound I-0919],0.014 µM
6,COC(=O)[C@@H](C)Cn1c(=O)[nH]/c(=N\c2ccc(OC3CCCC3)cc2)n(Cc2ccc(C)cc2)c1=O [Compound I-1186],0.033 µM
7,COC(=O)[C@@H](C)Cn1c(=O)[nH]/c(=N\c2ccc(C=C3CCCC3)cc2)n(Cc2ccc(C)cc2)c1=O [Compound I-1094],0.103 µM
8,CC(C)n1ncc2cc(/N=c3\[nH]c(=O)n([C@@H](C)[C@@H](C)C(=O)O)c(=O)n3Cc3ccc(Cl)cc3)ccc21 [Compound I-1744],0.242 µM
9,COC(=O)[C@@H](C)Cn1c(=O)[nH]/c(=N\c2ccc(OC3CC3)c(Cl)c2)n(Cc2ccc(C)cc2)c1=O [Compound I-1605],0.018 µM
10,CCc1nc2ccc(/N=c3\[nH]c(=O)n(CCNC(C)=O)c(=O)n3Cc3ccc(Cl)cc3)cc2s1 [Compound I-1612],0.005 µM
11,CCc1nc2ccc(/N=c3\[nH]c(=O)n(CCC(=O)NC)c(=O)n3Cc3ccc(Cl)cc3)cc2s1 [Compound I-1738],0.005 µM
12,CCOC(=O)CCn1c(=O)[nH]/c(=N\c2ccc(OC(C)C)c(Br)c2)n(Cc2ccc(C)cc2)c1=O [Compound I-1168],0.004 µM
13,CCc1nc2ccc(/N=c3\[nH]c(=O)n(CCC#N)c(=O)n3Cc3ccc(Cl)cc3)cc2s1 [Compound I-1769],0.003 µM
14,C#Cc1ccc(Cn2c(=O)n(C[C@H](C)C(=O)OC)c(=O)[nH]/c2=N\c2ccc(OC(C)C)c(C)c2)cc1 [Compound I-0945],0.173 µM
15,Cc1cc(Oc2ccc(/N=c3\[nH]c(=O)n(C[C@H](C)C(=O)O)c(=O)n3Cc3ccc(Cl)cc3)cc2)no1 [Compound I-1662],0.011 µM
16,Cc1ccc(Cn2c(=O)n(CCC(=O)O)c(=O)[nH]/c2=N\c2ccc(OCC3CC3)cc2)cc1 [Compound I-1148],0.086 µM
17,CCOc1ccc(/N=c2\[nH]c(=O)n(C[C@H](C)C(=O)O)c(=O)n2Cc2ccc(C)cc2)cc1Br [Compound I-1179],0.033 µM
18,COC(=O)[C@@H](C)Cn1c(=O)[nH]/c(=N\c2ccc(CCC3CC3)c(C)c2)n(Cc2ccc(Cl)cc2)c1=O [Compound I-1023],0.3 µM
19,CCCCCOc1ccc(/N=c2\[nH]c(=O)n(C[C@H](C)C(=O)OC)c(=O)n2Cc2ccc(C)cc2)cc1 [Compound I-1057],0.089 µM
20,Cc1ccc(Cn2c(=O)n(C[C@H](C)C(=O)O)c(=O)[nH]/c2=N\c2ccc(OC(C)C)c(Br)c2)cc1 [Compound I-0909],0.007 µM
21,Cc1ccc(Cn2c(=O)n(C[C@H](C)C(=O)O)c(=O)[nH]/c2=N\c2cccc(C3CCCC3)c2)cc1 [Compound I-1110],0.397 µM

# Same assay, conditions: human P2X3 receptor, Test Example 1
row,Compound,IC50
1,CC(CO)(CO)Cn1c(=O)[nH]/c(=N\c2ccc(OCC3CC3)cc2)n(Cc2ccc(Cl)cc2)c1=O [Compound I-2616],0.012 µM
2,CCn1c(=O)[nH]/c(=N\c2ccc(Oc3ccc(C(=O)O)nc3)cc2)n(C[C@H]2CC[C@H](C)CC2)c1=O [Compound I-2351],0.009 µM
3,CCn1c(=O)[nH]/c(=N\c2ccc(Oc3ccc(C#N)cn3)cc2)n(Cc2ccc(C)cc2)c1=O [Compound I-2395],0.004 µM
4,CNC(=O)CCn1c(=O)[nH]/c(=N\c2ccc(Oc3ccon3)cc2)n(Cc2ccc(Cl)cc2)c1=O [Compound I-2527],0.026 µM
5,Cc1cc(/N=c2\[nH]c(=O)n([C@H](C)[C@H](C)C(=O)O)c(=O)n2Cc2ccc(Cl)cc2)ccc1OC(C)C [Compound I-0825],0.025 µM
6,Cc1cc(Oc2ccc(/N=c3\[nH]c(=O)n(C[C@H](O)CO)c(=O)n3Cc3ccc(Cl)cc3)cc2)n(C)n1 [Compound I-2371],0.102 µM
7,CCc1oc2ccc(/N=c3\[nH]c(=O)n(CC4(C(=O)O)CC4)c(=O)n3Cc3ccc(Cl)cc3)cc2c1C [Compound I-1551],0.009 µM
8,Cn1c(=O)[nH]/c(=N\c2ccc(Oc3cc(C(N)=O)ccn3)cc2)n(Cc2ccc(Cl)cc2)c1=O [Compound I-2376],0.02 µM
9,O=c1[nH]/c(=N\c2ccc(Oc3ccon3)cc2)n(Cc2ccc(F)cc2)c(=O)n1CCCOC1CCCCO1 (stereo not drawn) [Compound I-2394],0.021 µM
10,Cn1c(=O)[nH]/c(=N\c2ccc(Oc3ncc(C(=O)O)s3)cc2)n(Cc2ccc(Cl)cc2)c1=O [Compound I-2409],0.014 µM
11,Cn1ccc(Oc2ccc(/N=c3\[nH]c(=O)n(C[C@H](O)CO)c(=O)n3Cc3ccc(Cl)cc3)cc2)n1 [Compound I-2412],0.084 µM
12,Cn1c(=O)[nH]/c(=N\c2ccc(Oc3cccc(C#N)n3)c(F)c2)n(Cc2ccc(Cl)cc2)c1=O [Compound I-2493],0.005 µM
13,CCn1c(=O)[nH]/c(=N\c2ccc3nc(N(C)C)sc3c2)n(Cc2ccc(Cl)cc2)c1=O [Compound I-2267],0.331 µM
14,CCn1c(=O)[nH]/c(=N\c2ccc(Oc3cncc(C(N)=O)c3)cc2)n(Cc2ccc(Cl)cn2)c1=O [Compound I-2236],0.062 µM
15,Cc1cnc(Oc2ccc(/N=c3\[nH]c(=O)n(CC(=O)O)c(=O)n3Cc3ccc(Cl)cc3)cc2)s1 [Compound I-2624],0.368 µM
16,Cc1cc(/N=c2\[nH]c(=O)n([C@H]3CC[C@@H](C(=O)O)CC3)c(=O)n2Cc2ccc(Cl)cc2)ccc1OC(C)C [Compound I-0851],0.024 µM
17,Cc1ccc(Cn2c(=O)n(CCC(=O)O)c(=O)[nH]/c2=N\c2ccc(Oc3cc(C#N)ccn3)cc2)cc1 [Compound I-2661],0.015 µM
